Source: patent US8735411B2, “Macrocyclic benzofused pyrimidine derivatives” (AbbVie Inc., priority 2006, dated 2014)

Each molecule was assayed against histamine H4 receptor (Homo sapiens, UniProt Q9H3N8) (assay: In vitro histamine H4 potency in FLIPR (Ca2+ flux, HEK-293 cells coexpressing Gαqi5)). Conditions: Kb for antagonists and inverse agonists, EC50 for partial agonists.
Format: cell-based
Design: expressed in transfected cells
Text: There are many methods available to show the effectiveness of compounds as histamine H4 receptor ligands. Histamine H4 receptors from mammalian species have been cloned. Methods to clone, express, and assess the potency and functional activity of such cloned genes are well known to those skilled in the art of molecular biology. […] Before testing, cells are loaded with a Ca^+2 sensitive fluorescent dye, in this case Fluo-4. In the case of partial agonist or agonist ligands, addition of compound to the cells leads to the increase in intracellular Ca^+2 which is detected by FLIPR (Fluorescence Imaging Plate Reader; Molecular Devices, Sunnyvale, Calif.) technology. […] The fluorescence intensities measured before addition of the test compound are subtracted from the fluorescence intensities at later time points. Peak response values determined at each concentration of ligand are expressed as a percentage of the response obtained with the full agonist histamine. Concentration versus response data are analyzed to obtain compound potency as Kb values for antagonists and inverse agonists and as EC50 values for partial agonists.

Row | Potency [µM] | Compound
1 | 0.178 | Nc1nc2c(c(N3CCN4CCCC4C3)n1)CCCc1ccccc1-2 (centres unmarked) [Example 80, 4-(Octahydro-pyrrolo[1,2-a]pyrazin-2-yl)-6,7-dihydro-5H-benzo[6,7]cyclohepta[1,2-d]pyrimidin-2-ylamine]
2 | 2.951 | CC(=O)Nc1nc2c(c(N3CCNCC3)n1)CCCc1ccccc1-2 [Example 83, N-(4-Piperazin-1-yl-6,7-dihydro-5H-benzo[6,7]cyclohepta[1,2-d]pyrimidin-2-yl)-acetamide]
3 | 3.388 | O=C(Nc1nc2c(c(N3CCNCC3)n1)CCCc1ccccc1-2)c1ccccc1 [Example 84, N-(4-Piperazin-1-yl-6,7-dihydro-5H-benzo[6,7]cyclohepta[1,2-d]pyrimidin-2-yl)-benzamide]
4 | 0.085 | CN1CCC2CN(c3nc(N)nc4c3CCCc3ccccc3-4)CC2C1 (centres unmarked) [Example 85, 4-(5-Methyl-octahydro-pyrrolo[3,4-c]pyridin-2-yl)-6,7-dihydro-5H-benzo[6,7]cyclohepta[1,2-d]pyrimidin-2-ylamine]
5 | 0.891 | CN1CC2CC(C1)N(c1nc(N)nc3c1CCCc1ccccc1-3)C2 (centres unmarked) [Example 86, 4-(3-Methyl-3,6-diaza-bicyclo[3.2.1]oct-6-yl)-6,7-dihydro-5H-benzo[6,7]cyclohepta[1,2-d]pyrimidin-2-ylamine]
6 | 0.174 | CN(C)CC(=O)Nc1nc2c(c(N3CCNCC3)n1)CCCc1ccccc1-2 [Example 87, 2-Dimethylamino-N-(4-piperazin-1-yl-6,7-dihydro-5H-benzo[6,7]cyclohepta[1,2-d]pyrimidin-2-yl)-acetamide]
7 | 0.209 | CNCC(=O)Nc1nc2c(c(N3CCNCC3)n1)CCCc1ccccc1-2 [Example 88, 2-Methylamino-N-(4-piperazin-1-yl-6,7-dihydro-5H-benzo[6,7]cyclohepta[1,2-d]pyrimidin-2-yl)-acetamide]
8 | 0.089 | NCC(=O)Nc1nc2c(c(N3CCNCC3)n1)CCCc1ccccc1-2 [Example 89, 2-Amino-N-(4-piperazin-1-yl-6,7-dihydro-5H-benzo[6,7]cyclohepta[1,2-d]pyrimidin-2-yl)-acetamide]
9 | 25.119 | CNC(=O)Nc1nc2c(c(N3CCNCC3)n1)CCCc1ccccc1-2 [Example 90, 1-Methyl-3-(4-piperazin-1-yl-6,7-dihydro-5H-benzo[6,7]cyclohepta[1,2-d]pyrimidin-2-yl)-urea]
10 | 0.55 | NCCCC(=O)Nc1nc2c(c(N3CCNCC3)n1)CCCc1ccccc1-2 [Example 91, 4-Amino-N-(4-piperazin-1-yl-6,7-dihydro-5H-benzo[6,7]cyclohepta[1,2-d]pyrimidin-2-yl)-butyramide]
11 | 2.57 | c1cncc(CNc2nc3c(c(N4CC5CCCNC5C4)n2)CCCc2ccccc2-3)c1 (centres unmarked) [Example 92, 6-(2-pyridin-3-ylmethylamino-6,7-dihydro-5H-benzo[6,7]cyclohepta[1,2-d]pyrimidin-4-yl)octahydro-1H-pyrrolo[3,4-b]pyridine]
12 | 0.135 | NCCC(=O)Nc1nc2c(c(N3CCNCC3)n1)CCCc1ccccc1-2 [Example 93, 3-Amino-N-(4-piperazin-1-yl-6,7-dihydro-5H-benzo[6,7]cyclohepta[1,2-d]pyrimidin-2-yl)-propionamide]
13 | 0.0091 | Nc1nc2c(c(N3CCNCCNCC3)n1)CCCc1ccccc1-2 [Example 94, 4-[1,4,7]Triazonan-1-yl-6,7-dihydro-5H-benzo[6,7]cyclohepta[1,2-d]pyrimidin-2-ylamine]
14 | 1.413 | CN(C)CCNc1nc2c(c(N3CCNCC3)n1)CCCc1ccccc1-2 [Example 95, N,N-Dimethyl-N′-(4-piperazin-1-yl-6,7-dihydro-5H-benzo[6,7]cyclohepta[1,2-d]pyrimidin-2-yl)-ethane-1,2-diamine]
15 | 0.019 | Nc1nc2c(c(N3CC4CCCNC4C3)n1)CCSc1ccccc1-2 (centres unmarked) [Example 96, 4-(Octahydro-pyrrolo[3,4-b]pyridin-6-yl)-5,6-dihydro-7-thia-1,3-diaza-dibenzo[a,c]cyclohepten-2-ylamine]
16 | 0.029 | CN[C@@H]1CCN(c2nc(N)nc3c2CCCc2cc4c(cc2-3)CCCC4)C1 [Example 97, 4-((R)-3-Methylamino-pyrrolidin-1-yl)-6,7,9,10,11,12-hexahydro-5H-1,3-diaza-benzo[3,4]cyclohepta[1,2-b]naphthalen-2-ylamine]

Row | Potency [µM] | Compound
17 | 0.052 | Nc1nc2c(c(N3CC4CCCNC4C3)n1)CCCc1cc3c(cc1-2)CCCC3 (centres unmarked) [Example 98, 4-(Octahydro-pyrrolo[3,4-b]pyridin-6-yl)-6,7,9,10,11,12-hexahydro-5H-1,3-diaza-benzo[3,4]cyclohepta[1,2-b]naphthalen-2-ylamine]
18 | 0.025 | Nc1nc2c(c(N3CCNCC3)n1)CCCc1cc3c(cc1-2)CCCC3 [Example 99, 4-Piperazin-1-yl-6,7,9,10,11,12-hexahydro-5H-1,3-diaza-benzo[3,4]cyclohepta[1,2b]naphthalen-2-ylamine]
19 | 0.12 | CN[C@@H]1CCN(c2nc(N)nc3c2CCOc2cc(I)ccc2-3)C1 [Example 100, 9-Iodo-4-((R)-3-methylamino-pyrrolidin-1-yl)-5,6-dihydro-7-oxa-1,3-diaza-dibenzo[a,c]cyclohepten-2-ylamine]
20 | 0.269 | Nc1nc2c(c(N3CCNCC3)n1)CCOc1cc(I)ccc1-2 [Example 101, 9-Iodo-4-piperazin-1-yl-5,6-dihydro-7-oxa-1,3-diaza-dibenzo[a,c]cyclohepten-2-ylamine]
21 | 0.045 | Nc1nc2c(c(N3CC4CCCNC4C3)n1)CCOc1cc(I)ccc1-2 (centres unmarked) [Example 102, 9-Iodo-4-octahydro-pyrrolo[3,4-b]pyridin-6-yl-5,6-dihydro-7-oxa-1,3-diaza-dibenzo[a,c]cyclohepten-2-ylamine]
22 | 0.141 | N#Cc1ccc2c(c1)OCCc1c-2nc(N)nc1N1CC2CCCNC2C1 (centres unmarked) [Example 104, 2-Amino-4-octahydro-pyrrolo[3,4-b]pyridin-6-yl-5,6-dihydro-7-oxa-1,3-diaza-dibenzo[a,c]cycloheptene-9-carbonitrile]
23 | 0.083 | Nc1nc2c(c(N3CC4CCCNC4C3)n1)CCOc1cc(-c3ccccc3)ccc1-2 (centres unmarked) [Example 105, 4-Octahydro-pyrrolo[3,4-b]pyridin-6-yl-9-phenyl-5,6-dihydro-7-oxa-1,3-diaza-dibenzo[a,c]cyclohepten-2-ylamine]
24 | 0.14 | Nc1nc2c(c(N3CC4CCCNC4C3)n1)CCOc1cc(-c3cccnc3)ccc1-2 (centres unmarked) [Example 106, 4-Octahydro-pyrrolo[3,4-b]pyridin-6-yl-9-pyridin-3-yl-5,6-dihydro-7-oxa-1,3-diaza-dibenzo[a,c]cyclohepten-2-ylamine]
25 | 0.011 | CN[C@@H]1CCN(c2nc(N)nc3c2SCCc2ccccc2-3)C1 [Example 107, 4-((R)-3-Methylamino-pyrrolidin-1-yl)-6,7-dihydro-5-thia-1,3-diaza-dibenzo[a,c]cyclohepten-2-ylamine]
26 | 0.053 | COC(=O)c1ccc2c(c1)OCCc1c-2nc(N)nc1N1CC2CCCNC2C1 (centres unmarked) [Example 108, 2-Amino-4-octahydro-pyrrolo[3,4-b]pyridin-6-yl-5,6-dihydro-7-oxa-1,3-diaza-dibenzo[a,c]cycloheptene-9-carboxylic acid methyl ester]
27 | 0.087 | Nc1nc2c(c(N3CCNCC3)n1)SCCc1ccccc1-2 [Example 109, 4-Piperazin-1-yl-6,7-dihydro-5-thia-1,3-diaza-dibenzo[a,c]cyclohepten-2-ylamine]
28 | 0.054 | Nc1nc2c(c(N3CC4CCCNC4C3)n1)SCCc1ccccc1-2 (centres unmarked) [Example 110, 4-(Octahydro-pyrrolo[3,4-b]pyridin-6-yl)-6,7-dihydro-5-thia-1,3-diaza-dibenzo[a,c]cyclohepten-2-ylamine]
29 | 1.413 | CN[C@@H]1CCN(c2nc(N)nc3c2S(=O)(=O)CCc2ccccc2-3)C1 [Example 111, 4-((R)-3-Methylamino-pyrrolidin-1-yl)-5,5-dioxo-6,7-dihydro-5H-5λ6-thia-1,3-diaza-dibenzo[a,c]cyclohepten-2-ylamine]
30 | 2.455 | CN[C@@H]1CCN(c2nc(N)nc3c2[S+]([O-])CCc2ccccc2-3)C1 (stereo partly drawn) [Example 112, 4-((R)-3-Methylamino-pyrrolidin-1-yl)-5-oxo-6,7-dihydro-5-thia-1,3-diaza-dibenzo[a,c]cyclohepten-2-ylamine]
31 | 4.266 | Nc1nc(NCCCN2CCCCC2)c2c(n1)-c1ccccc1CCC2 [Example 113, N^4-(3-Piperidin-1-yl-propyl)-6,7-dihydro-5H-benzo[6,7]cyclohepta[1,2-d]pyrimidine-2,4-diamine]
32 | 0.032 | Nc1nc2c(c(N3CC4CCCNC4C3)n1)CCCc1ccc(F)cc1-2 (centres unmarked) [Example 115, 10-fluoro-4-octahydro-6H-pyrrolo[3,4-b]pyridin-6-yl-6,7-dihydro-5H-benzo[6,7]cyclohepta[1,2-d]pyrimidin-2-amine]

Row | Compound | Potency [µM]
33 | Nc1nc2c(c(N3CC4CNCC3C4)n1)CCCc1ccccc1-2 (centres unmarked) [Example 81, 4-(3,6-Diaza-bicyclo[3.2.1]oct-6-yl)-6,7-dihydro-5H-benzo[6,7]cyclohepta[1,2-d]pyrimidin-2-ylamine] | 4.169
34 | Nc1nc2c(c(N3CCC4CC3CN4)n1)CCCc1ccccc1-2 (centres unmarked) [Example 82, 4-(2,6-Diaza-bicyclo[3.2.1]oct-2-yl)-6,7-dihydro-5H-benzo[6,7]cyclohepta[1,2-d]pyrimidin-2-ylamine] | 2.042
35 | c1ccc2c(c1)CCCc1c-2nc(N2CCNCC2)nc1N1CCNCC1 [Example 103, 2,4-Di-piperazin-1-yl-6,7-dihydro-5H-benzo[6,7]cyclohepta[1,2-d]pyrimidine] | 0.351
